Reference: PMC11219860, “A chemogenetic approach for dopamine imaging with tunable sensitivity” (Nature Communications, 2024)

Legend:
[1] = In vivo pharmacokinetics, free brain concentration (LC/MS); design: species or system mouse; settings: 10 mg/kg i.p.
Procedure: To measure free brain and plasma concentrations of DETQ in the mouse, male C57Bl6/N mice from Taconic Biosciences (Germantown, NY, USA) weighing 23–25 g (9–10 weeks old) were used for this study. The animals were acclimated for at least 72 hours after arrival from the breeder and housed five per cage in “shoe box” size cages with free access to food and water (lights on from 5 am to 5 pm) before use. The experiment was approved by the Institutional IACUC committee, and Eli Lilly is an AAALAC-certified facility. DETQ (Eli Lilly, see above) was formulated as a fine suspension in 20% HPBCD in purified water using ultrasonication. The drug was administered intraperitoneally at 10 mg/kg body weight (10 mL/kg. dose volume) with four animals per time point (0.25, 0.5, 0.75, 1, 1.5, and 2 hr). The animals were decapitated at the time points indicated above, and their frontal brains (mainly frontal cortex) were rapidly dissected and frozen. Blood was collected at decapitation, and plasma was separated by centrifugation. Both samples were then stored at −80 °C until further analysis. DETQ concentrations were measured in plasma and brain tissues by liquid chromatography with tandem mass spectrometry (LC/MS). The samples were analyzed using an AB Sciex API 4000 quadrupole mass spectrometer (Applied Biosystems, Foster City, CA) with a TurboIonSpray interface. Brain samples were homogenized in a methanol-water solution (20:80) using a probe sonicator. Both brain and plasma samples underwent extraction procedures. Calibration curves were established by spiking blank plasma or brain samples with an internal standard. The system utilized Shimadzu LC-10AD pumps controlled by an SCL-10A controller (Kyoto, Japan). Sample injections were performed by a Z-215 liquid handler (Gilson, Middleton, WI). Chromatographic separation of all compounds was achieved using a Betasil javelin C18 HPLC column, 20 mm × 2.1 mm, 5 μm (Thermo Fisher Scientific, Waltham, MA). The unbound fraction in brain tissue samples was determined by equilibrium dialysis in mouse brain homogenate mixtures after incubation of the compound for 4.5 hours. The unbound brain concentrations were calculated from the following equation[24]: Totalbrainconcentration*Unboundfractioninbrain=Unboundbrainconcentration(Cu,brain)

human DRD1 (hmDRD1) = settings: cited from earlier work
msDRD2 = target: T1, msDRD2 (Mus musculus, UniProt P61168); experiment: NanoBit complementation assay of mini-Gi recruitment; assay type: cell-based
T1 construct: expressed in transfected cells; host or cells: HEK293T
T1 sequence (P61168 whole entry): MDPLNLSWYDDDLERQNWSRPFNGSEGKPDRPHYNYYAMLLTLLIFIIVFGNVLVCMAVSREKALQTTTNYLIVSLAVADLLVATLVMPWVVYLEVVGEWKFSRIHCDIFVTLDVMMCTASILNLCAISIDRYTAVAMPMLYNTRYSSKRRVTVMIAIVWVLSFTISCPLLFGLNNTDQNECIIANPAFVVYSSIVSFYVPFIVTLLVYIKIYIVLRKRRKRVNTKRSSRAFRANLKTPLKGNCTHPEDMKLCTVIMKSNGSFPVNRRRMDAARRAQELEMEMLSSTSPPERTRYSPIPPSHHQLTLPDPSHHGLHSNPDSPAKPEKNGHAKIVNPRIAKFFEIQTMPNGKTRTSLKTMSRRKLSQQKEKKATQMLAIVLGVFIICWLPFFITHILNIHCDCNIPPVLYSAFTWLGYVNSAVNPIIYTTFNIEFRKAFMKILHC
Procedure: To measure the effect of DETQ on mini-G protein recruitment by different GPCRs we used a Nanoluciferase (NanoBit)-based complementation assay[26],[27]. For this HEK293T cells were seeded in six-well plates (Techno Plastic Products) at a density of 300,000 cells per well and co-transfected with plasmids encoding either hmDRD1, msDRD1, msDRD2, msDRD5, msADRA1a, msβ2AR or ms5HT6 carrying a C-terminally fused SmBiT, in combination with the corresponding mini-G protein probe[78] (mini-Gs: for DRD1, DRD5, β2AR, 5HT6R; mini-Gq: for ADRA1a; or mini-Gi: for DRD2), which were N-terminally fused to LgBiT, in a 1:1 DNA ratio using Effectene transfection reagent (Qiagen). […] The plate was incubated at 37 °C for 30 min, before the luminescence signal was measured at 37 °C using a Tecan Spark plate reader before and after the manual addition of 25 µl of either ligand solution (final concentrations ranging from 1 nM to 100 µM), pure Fluorobrite-DMEM or 25 µl of a DETQ solution (1 µM final concentration).
For in vitro luminescence assays, ligand traces were divided by buffer traces, the area under the curve for each trace was calculated using GraphPad Prism, values were normalized and fitted as dose response curve. […] The statistical significance was determined using Welch’s ANOVA followed by Dunnett’s multiple comparison test (comparison of ligand or vehicle to ligand). […]

msβ2AR = target: T2, msβ2AR (Mus musculus, UniProt P18762); experiment: NanoBit complementation assay of mini-Gs recruitment; assay type: cell-based
T2 construct: expressed in transfected cells; host or cells: HEK293T
T2 sequence (P18762 whole entry): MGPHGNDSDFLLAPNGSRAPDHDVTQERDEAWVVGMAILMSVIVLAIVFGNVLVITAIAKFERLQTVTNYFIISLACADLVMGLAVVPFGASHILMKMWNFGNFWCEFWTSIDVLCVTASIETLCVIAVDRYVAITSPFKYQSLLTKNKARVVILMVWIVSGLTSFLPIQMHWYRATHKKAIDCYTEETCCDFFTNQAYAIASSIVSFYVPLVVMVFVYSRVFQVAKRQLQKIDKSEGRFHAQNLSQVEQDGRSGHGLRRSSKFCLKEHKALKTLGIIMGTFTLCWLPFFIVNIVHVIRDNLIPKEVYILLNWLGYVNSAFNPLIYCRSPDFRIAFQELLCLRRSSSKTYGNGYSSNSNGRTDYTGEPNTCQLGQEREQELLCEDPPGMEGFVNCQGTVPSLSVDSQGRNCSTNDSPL
Procedure: (§1) To measure the effect of DETQ on mini-G protein recruitment by different GPCRs we used a Nanoluciferase (NanoBit)-based complementation assay[26],[27]. For this HEK293T cells were seeded in six-well plates (Techno Plastic Products) at a density of 300,000 cells per well and co-transfected with plasmids encoding either hmDRD1, msDRD1, msDRD2, msDRD5, msADRA1a, msβ2AR or ms5HT6 carrying a C-terminally fused SmBiT, in combination with the corresponding mini-G protein probe[78] (mini-Gs: for DRD1, DRD5, β2AR, 5HT6R; mini-Gq: for ADRA1a; or mini-Gi: for DRD2), which were N-terminally fused to LgBiT, in a 1:1 DNA ratio using Effectene transfection reagent (Qiagen). 24 h after transfection cells were detached using Versene (ThermoFisher Scientific), washed, centrifuged (RT, 150 g, 3 min), and resuspended (0.5 × 10^6 cells ml^−1) in Fluorobrite DMEM (ThermoFisher Scientific) complemented with 30 mM HEPES (ThermoFisher Scientific). First, 95 µl of the cell suspension were added into each well of a white flat-bottom 96-well OptiPlate (PerkinElmer), then 25 µl of a 20-fold dilution of Nano-Glo reagent in LCS buffer (Promega) and last either 5 ul of pure Fluorobrite-DMEM or 5 ul of DETQ diluted in Fluorobrite DMEM (final concentration 100 nM for DRD1; 1 µM for all other receptors). The plate was incubated at 37 °C for 30 min, before the luminescence signal was measured at 37 °C using a Tecan Spark plate reader before and after the manual addition of 25 µl of either ligand solution (final concentrations ranging from 1 nM to 100 µM), pure Fluorobrite-DMEM or 25 µl of a DETQ solution (1 µM final concentration).
(§2) For in vitro luminescence assays, ligand traces were divided by buffer traces, the area under the curve for each trace was calculated using GraphPad Prism, values were normalized and fitted as dose response curve. The change in luminescence (∆L/L0) upon addition of different ligands was calculated as follows: (Lt – L0)/L0, with Lt being the Luminescence at ten timepoints t immediately after ligand application, and L0 being the luminescence of ten timepoints before ligand application. The statistical significance was determined using Welch’s ANOVA followed by Dunnett’s multiple comparison test (comparison of ligand or vehicle to ligand). For ex vivo imaging experiments, statistical analyses were performed in Prism (GraphPad) using independent samples t-test or nonparametric Mann-Whitney U-test when assumption of normality was violated (assessed using Schapiro-Wilk’s test). Curve fitting parameters were compared by extra sum-of-squares F test. For in vivo imaging experiments, statistical tests were paired and unpaired t-tests (two-tailed) and repeated-measures ANOVA for parametric data, while they were Wilcoxon rank sum tests or Mann-Whitney for non-parametric data. Sidak or Tukey post-hoc tests correcting for multiple comparisons were used in the case of significant interactions in ANOVA. All p-values are indicated in the Results section. […] No statistical methods were used to predetermine sample size. No data were excluded from the analyses. Group allocations used in this study were randomly assigned to animals and/or cultured cells. The Investigators were not blinded to allocation during experiments and outcome assessment.

msDRD1 = target: T3, msDRD1 (Mus musculus, UniProt Q61616); experiment: as above; assay type: cell-based
T3 construct: expressed in transfected cells; host or cells: HEK293T
T3 sequence (Q61616 whole entry): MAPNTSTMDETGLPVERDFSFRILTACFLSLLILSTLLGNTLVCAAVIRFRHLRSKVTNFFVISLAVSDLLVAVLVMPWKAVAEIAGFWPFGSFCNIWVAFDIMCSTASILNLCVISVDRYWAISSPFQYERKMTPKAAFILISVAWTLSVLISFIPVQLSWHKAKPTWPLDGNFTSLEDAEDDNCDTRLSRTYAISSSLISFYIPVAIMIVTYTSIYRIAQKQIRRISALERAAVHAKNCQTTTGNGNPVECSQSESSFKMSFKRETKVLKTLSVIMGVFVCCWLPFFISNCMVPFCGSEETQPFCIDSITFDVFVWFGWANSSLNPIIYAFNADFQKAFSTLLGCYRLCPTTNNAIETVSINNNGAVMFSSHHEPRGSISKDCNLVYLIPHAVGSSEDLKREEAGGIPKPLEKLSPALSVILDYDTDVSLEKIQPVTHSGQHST
Procedure: as §1, §2

hmDRD1 = hmDRD1 (Homo sapiens, UniProt P21728); experiment: as above; assay type: cell-based
hmDRD1, sequence (P21728 whole entry): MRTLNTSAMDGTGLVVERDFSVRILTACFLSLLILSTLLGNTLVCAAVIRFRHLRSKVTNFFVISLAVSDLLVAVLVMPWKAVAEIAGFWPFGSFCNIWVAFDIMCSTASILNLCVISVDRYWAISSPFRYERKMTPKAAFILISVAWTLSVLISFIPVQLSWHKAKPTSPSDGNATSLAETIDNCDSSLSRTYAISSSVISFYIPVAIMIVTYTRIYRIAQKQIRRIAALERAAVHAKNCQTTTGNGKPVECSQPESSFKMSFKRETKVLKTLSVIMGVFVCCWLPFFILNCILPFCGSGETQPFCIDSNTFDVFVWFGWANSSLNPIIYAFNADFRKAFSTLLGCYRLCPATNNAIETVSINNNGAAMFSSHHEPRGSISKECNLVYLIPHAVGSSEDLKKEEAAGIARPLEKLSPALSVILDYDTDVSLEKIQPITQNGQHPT
Procedure: as §1, §2

ms5HT6 = target: T4, ms5HT6 (Mus musculus, UniProt Q9R1C8); experiment: as above; assay type: cell-based
T4 construct: expressed in transfected cells; host or cells: HEK293T
T4 sequence (Q9R1C8 whole entry): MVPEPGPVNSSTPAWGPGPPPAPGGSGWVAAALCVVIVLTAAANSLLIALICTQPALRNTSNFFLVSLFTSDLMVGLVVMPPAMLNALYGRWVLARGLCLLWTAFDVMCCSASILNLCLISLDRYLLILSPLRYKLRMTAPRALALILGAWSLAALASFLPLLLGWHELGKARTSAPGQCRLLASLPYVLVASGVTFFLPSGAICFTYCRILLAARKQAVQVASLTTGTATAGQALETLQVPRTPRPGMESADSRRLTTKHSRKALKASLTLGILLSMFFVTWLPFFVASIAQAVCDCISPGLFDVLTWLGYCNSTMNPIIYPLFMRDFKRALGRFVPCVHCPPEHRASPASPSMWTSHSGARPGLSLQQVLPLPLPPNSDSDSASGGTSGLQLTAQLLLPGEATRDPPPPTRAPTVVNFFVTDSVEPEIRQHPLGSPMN
Procedure: as §1, §2

msDRD5 = target: T5, msDRD5 (Mus musculus, UniProt Q8BLD9); experiment: as above; assay type: cell-based
T5 construct: expressed in transfected cells; host or cells: HEK293T
T5 sequence (Q8BLD9 whole entry): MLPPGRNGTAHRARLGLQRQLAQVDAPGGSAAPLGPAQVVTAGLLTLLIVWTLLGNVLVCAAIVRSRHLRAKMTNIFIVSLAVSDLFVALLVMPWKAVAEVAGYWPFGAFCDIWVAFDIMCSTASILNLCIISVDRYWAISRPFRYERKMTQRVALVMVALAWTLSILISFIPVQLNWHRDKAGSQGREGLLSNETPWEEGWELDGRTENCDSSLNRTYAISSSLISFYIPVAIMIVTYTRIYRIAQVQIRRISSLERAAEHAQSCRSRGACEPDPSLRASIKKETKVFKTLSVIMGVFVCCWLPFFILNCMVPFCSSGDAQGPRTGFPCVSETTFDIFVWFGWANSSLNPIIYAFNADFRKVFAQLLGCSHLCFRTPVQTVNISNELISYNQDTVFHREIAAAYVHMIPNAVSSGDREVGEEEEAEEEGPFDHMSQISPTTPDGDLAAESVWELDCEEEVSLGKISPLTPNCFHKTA
Procedure: as §1, §2

C[C@H]1c2cccc(C(C)(C)O)c2C[C@H](CO)N1C(=O)Cc1c(Cl)cccc1Cl [DETQ, 2-(2,6-dichlorophenyl)-1-((1S,3R)-3-(hydroxymethyl)-5-(2-hydroxypropan-2-yl)-1-methyl-3,4-dihydroisoquinolin-2(1H)-yl)ethan-1-one]
clearance from the brain ([1]; 2 hours post-injection): almost completely cleared | concentration at 1 h ([1]; male, C57Bl6/N, mouse, brain (frontal brain, unbound concentration), intraperitoneal, 1-hour post-injection, read-out: free brain level): < 50 nM | concentration at 15 min ([1]; male, C57Bl6/N, mouse, brain (frontal brain, unbound concentration), intraperitoneal, 15 minutes after dosing, read-out: free brain level): ~270 nM | concentration at 45 min ([1]; male, C57Bl6/N, mouse, brain (frontal brain, unbound concentration), intraperitoneal, 45 minutes post-injection, read-out: free brain level): ~110 nM | Kb (human DRD1 (hmDRD1)): 11.4 nM | maximal potentiation of dopamine (human DRD1 (hmDRD1); human clones, ref Hao et al., 2019, Wang et al., 2018): 75-85% | in vitro potency as a D1PAM at the hD1 receptor (human DRD1 (hmDRD1); ref Svensson et al., 2017, Hao et al., 2019): 11 nM | agonist mode: direct agonist effect (msDRD2; DETQ 1 µM alone): no direct agonist effect | allosteric modulator mode: effect on agonist dose-response (msDRD2; DETQ 1 µM, DA): No allosteric effect | agonist mode: direct agonist effect (msβ2AR; DETQ 1 µM alone): no direct agonist effect | allosteric modulator mode: effect on agonist dose-response (msβ2AR; DETQ 1 µM, NE): No allosteric effect | allosteric modulator mode: potentiation of mini-Gs recruitment during DA titration (msDRD1; DETQ 100 nM): potentiation of mini-Gs recruitment only in the case of the hmDRD1 | agonist mode: direct agonist effect (msDRD1; DETQ 1 µM alone): no direct agonist effect | allosteric modulator mode: potentiation of mini-Gs recruitment during DA titration (hmDRD1; DETQ 100 nM): strong and significant potentiation | agonist mode: direct agonist effect (hmDRD1; DETQ 1 µM alone): no direct agonist effect | agonist mode: direct agonist effect (ms5HT6; DETQ 1 µM alone): no direct agonist effect | allosteric modulator mode: effect on agonist dose-response (ms5HT6; DETQ 1 µM, 5HT): No allosteric effect | agonist mode: direct agonist effect (msDRD5; DETQ 1 µM alone): no direct agonist effect | allosteric modulator mode: effect on agonist dose-response (msDRD5; DETQ 1 µM, DA): No allosteric effect
